Source: patent US8642801B2 (BHI Limited Partnership, priority 2003, dated 2014)

Target: T1, Aβ40 and Aβ42 peptides in plasma and brain of TgCRND8 mice (Homo sapiens, UniProt P05067)
T1 construct: ELISA using Human Aβ40 and Aβ42 Fluorometric ELISA kits from Biosource; from tissue; host or cells: plasma and brain homogenate of TgCRND8 transgenic mice (hAPP transgene)
Assay: Long term treatment in adult transgenic CRND8 mice overexpressing βAPP: Aβ levels in plasma and brain by ELISA
Type: in vivo, Mouse
Conditions: BX subcutaneous, BW and BZ oral, vs vehicle or methylcellulose control
Source text: Transgenic mice, TgCRND8, as those used in the short term treatment, overexpress a human APP gene with the Swedish and Indiana mutations leading to the production of high levels of the amyloid peptides and to the development of an early-onset, aggressive development of brain amyloidosis. The high levels of Aβ peptides and the relative overabundance of Aβ42 compared to Aβ40 are believed to be associated with the severe and early degenerative pathology observed. The pattern of amyloid deposition, presence of dystrophic neuritis, and cognitive deficit has been well documented in this transgenic mouse line. The levels of Aβ peptides in the brain of these mice increase dramatically as the animals age. While the total amyloid peptide levels increase from ˜1.6×10^5 pg/g of brain to ˜3.8×10^6 between 9 and 17 weeks of age.
The long-term therapeutic effects of compounds of the present invention on cerebral amyloid deposition and β-amyloid (Aβ) levels in the plasma and in the brains of transgenic mice, TgCRND8, expressing the human amyloid precursor protein (hAPP) was studied. These compounds were administered over an 8 or 16 week period at the end of which the levels of Aβ peptides in the plasma and brain of TgCRND8 animals were determined. The goal of this study was to evaluate the efficacy of the compounds at modulating the progression of the amyloidogenic process in the brain and in the plasma of a transgenic mouse model of Alzheimer's disease (AD)
The mice used in the study consisted of animals bearing one copy of the hAPP gene (+/−) from the 2nd and 3rd generation progenies (N2 and N3) derived from backcrosses from TgCRND8.FVB(N2)AJ(N3) with B6AF1/J hybrid animals. N1=TgCRND8.FVB(N2)AJ(N3)×B6AF1/J N2=TgCRND8.FVB(N2)AJ(N3).B6AF1/J(N1)×B6AF1/J N3=TgCRND8.FVB(N2)AJ(N3).B6AF1/J(N2)×B6AF1/a
The following abbreviations are used to designate these animals in the present study: TgCRND8.B6AF1/J(N2); TgCRND8.B6AF1/J(N3). Male and female transgenic mice were given daily subcutaneous (compound BX) or oral (compounds BW and BZ) administrations of the appropriate compounds for 8 or 16 weeks.
Baseline animals consisted of 9±1 week old naive TgCRND8.B6AF1/J animals from the 2nd and 3rd generations. These mice were used to determine the extent of cerebral amyloid deposits and Aβ levels in the plasma and brain of naive transgenic animals at the initiation of treatment.
Starting at 9 weeks of age (±1 week) animals received daily administration of their respective treatment for a period of 8 or 16 weeks, at a dose of 30 or 100 mg/kg at 10 ml/kg. The route of administration was subcutaneous for water-soluble compounds (Compound BX) and oral for compounds solubilized in methylcellulose 1% (MC 1%) (Compounds BW and BZ). At the end of the treatment periods, plasma and perfused brains were collected for quantification of Aβ levels.
Animal health was monitored, samples were collected and Aβ levels were measured as described above in the short term treatment study. Compounds were scored based on their ability to modulate levels of Aβ peptides in the plasma and the cerebral soluble/insoluble levels in the brain. Levels of Aβ observed in the plasma and brain of treated animals were compared to that of vehicle-treated (water) or methylcellulose-treated control groups and ranked according to the strength of the pharmacological effect. Increases in the levels of Aβ peptides are indicated using “+” symbols, while decreases in the levels of Aβ peptides are indicated using “−” symbols. The strongest effects are recorded as “+++” or “−−−” while the weakest are shown as “+” or “−”.
Specifically, increases in the levels of Aβ (relative to vehicle treated control) of 5 to 14% are scored as “+”; increases of 15 to 29% are scored as “++”; and increases of 30% or higher are scored as “+++”. Decreases in the levels of Aβ of 5 to 14% are scored as “−”; decreases of 15 to 29% are scored as “−−”; and decreases of 30% or more are scored as “−−−”. […]

CC(C)(C)NCCCS(=O)(=O)O [BX, 3-(t-butyl)amino-1-propanesulfonic acid]
Brain Abeta40 insoluble (30 mg/kg daily, 8 wks): −−− (decreases of 30% or more are scored as “−−−”)
Brain Abeta40 soluble (30 mg/kg daily, 8 wks): −−− (decreases of 30% or more are scored as “−−−”)
Brain Abeta42 insoluble (30 mg/kg daily, 8 wks): −− (decreases of 15 to 29% are scored as “−−”)
Brain Abeta42 soluble (30 mg/kg daily, 8 wks): −−− (decreases of 30% or more are scored as “−−−”)
Plasma Abeta40 (30 mg/kg daily, 8 wks): + (increases in the levels of Aβ (relative to vehicle treated control) of 5 to 14% are scored as “+”)
Plasma Abeta42 (30 mg/kg daily, 8 wks): + (increases in the levels of Aβ (relative to vehicle treated control) of 5 to 14% are scored as “+”)
Brain Abeta40 insoluble (30 mg/kg daily, 16 wks): −−− (decreases of 30% or more are scored as “−−−”)
Brain Abeta40 soluble (30 mg/kg daily, 16 wks): −− (decreases of 15 to 29% are scored as “−−”)
Brain Abeta42 insoluble (30 mg/kg daily, 16 wks): − (Decreases in the levels of Aβ of 5 to 14% are scored as “−”)
Brain Abeta42 soluble (30 mg/kg daily, 16 wks): 0 (changes of 4% or less in either direction are scored as “0”)
Plasma Abeta40 (30 mg/kg daily, 16 wks): − (Decreases in the levels of Aβ of 5 to 14% are scored as “−”)
Plasma Abeta42 (30 mg/kg daily, 16 wks): − (Decreases in the levels of Aβ of 5 to 14% are scored as “−”)
Brain Abeta40 insoluble (100 mg/kg daily, 8 wks): ++ (increases of 15 to 29% are scored as “++”)
Brain Abeta40 soluble (100 mg/kg daily, 8 wks): + (increases in the levels of Aβ (relative to vehicle treated control) of 5 to 14% are scored as “+”)
Brain Abeta42 insoluble (100 mg/kg daily, 8 wks): 0 (changes of 4% or less in either direction are scored as “0”)
Brain Abeta42 soluble (100 mg/kg daily, 8 wks): + (increases in the levels of Aβ (relative to vehicle treated control) of 5 to 14% are scored as “+”)
Plasma Abeta40 (100 mg/kg daily, 8 wks): ++ (increases of 15 to 29% are scored as “++”)
Plasma Abeta42 (100 mg/kg daily, 8 wks): +++ (increases of 30% or higher are scored as “+++”)
Brain Abeta40 insoluble (100 mg/kg daily, 16 wks): −−− (decreases of 30% or more are scored as “−−−”)
Brain Abeta40 soluble (100 mg/kg daily, 16 wks): − (Decreases in the levels of Aβ of 5 to 14% are scored as “−”)
Brain Abeta42 insoluble (100 mg/kg daily, 16 wks): −− (decreases of 15 to 29% are scored as “−−”)
Brain Abeta42 soluble (100 mg/kg daily, 16 wks): 0 (changes of 4% or less in either direction are scored as “0”)
Plasma Abeta40 (100 mg/kg daily, 16 wks): − (Decreases in the levels of Aβ of 5 to 14% are scored as “−”)
Plasma Abeta42 (100 mg/kg daily, 16 wks): 0 (changes of 4% or less in either direction are scored as “0”)
